Assay results published in ChEMBL document CHEMBL4706609, “Development of triazolothiadiazine derivatives as highly potent tubulin polymerization inhibitors: Structure-activity relationship, in vitro and in vivo study” (Eur J Med Chem, 2020).

How the values were obtained:
HT-29 = assay: Antiproliferative activity against human HT-29 cells assessed as reduction in cell growth after 48 hrs by MTT assay; assay type: functional, cell-based; conditions: HT-29, 48 h
MCF7 = assay: Antiproliferative activity against human MCF7 cells assessed as reduction in cell growth after 48 hrs by MTT assay; assay type: functional, cell-based; conditions: MCF7, 48 h
A549 [1] = assay: Antiproliferative activity against human A549 cells assessed as reduction in cell growth after 48 hrs by MTT assay; assay type: functional, cell-based; conditions: A549, 48 h
HeLa = assay: Antiproliferative activity against human HeLa cells assessed as reduction in cell growth after 48 hrs by MTT assay; assay type: functional, cell-based
A2780 = assay: Antiproliferative activity against paclitaxel-resistant human A2780 cells assessed as reduction in cell growth after 48 hrs by MTT assay; assay type: functional, cell-based; conditions: A2780, 48 h
HEK293 = assay: Cytotoxicity against HEK293 cells assessed as reduction in cell growth after 48 hrs by MTT assay; assay type: cell-based; conditions: Homo sapiens, HEK293, 48 h
A549 [2] = assay: Antiproliferative activity against cisplatin resistant human A549 cells assessed as reduction in cell growth after 48 hrs by MTT assay; assay type: functional, cell-based; conditions: A549, 48 h
[3] = Inhibition of porcine brain tubulin polymerization measured for 20 mins by spectrometric assay; assay type: tissue-based, Sus scrofa

SMILES	IC50 (HT-29)	other results
COc1cc(-c2nnc3n2N=C(Nc2c(Cl)cccc2Cl)CS3)cc(OC)c1OC	> 20 µM	–
COc1ccc(-c2nnc3n2N=C(c2cc(OC)c(OC)c(OC)c2)CS3)cc1	> 20 µM	–
COc1cc(C2=Nn3c(nnc3-c3cc(OC)c(OC)c(OC)c3)SC2)cc(OC)c1OC	19.9 µM	–
COc1ccc(C2=Nn3c(nnc3-c3cc(OC)c(OC)c(OC)c3)SC2)cc1O	9.81 µM	–
COc1cc(-c2nnc3n2N=C(c2cccs2)CS3)cc(OC)c1OC	4.25 µM	–
COc1cc(-c2nnc3n2N=C(Nc2ccc(S(C)(=O)=O)cc2)CS3)cc(OC)c1OC	> 20 µM	–
COc1cc(-c2nnc3n2N=C(Nc2ccc(F)cc2)CS3)cc(OC)c1OC	8.11 µM	–
COc1cc(-c2nnc3n2N=C(c2ccc(F)c(F)c2)CS3)cc(OC)c1OC	> 20 µM	–
COc1cc(-c2nnc3n2N=C(c2ccc(-c4ccccc4)cc2)CS3)cc(OC)c1OC	13.7 µM	–
COc1cc(-c2nnc3n2N=C(Nc2cccc(F)c2)CS3)cc(OC)c1OC	> 20 µM	–
COc1cc(-c2nnc3n2N=C(c2ccc(O)cc2)CS3)cc(OC)c1OC	14.1 µM	–
COc1ccc(-c2nnc3n2N=C(c2cc(OC)c(OC)c(OC)c2)CS3)cc1O	9.86 µM	–
COc1cc(-c2nnc3n2N=C(NCCc2ccc(F)cc2)CS3)cc(OC)c1OC	> 20 µM	–
COc1cc(-c2nnc3n2N=C(NCCc2ccc(Cl)cc2)CS3)cc(OC)c1OC	> 20 µM	–
COc1cc(-c2nnc3n2N=C(Nc2ccccc2)CS3)cc(OC)c1OC	3.25 µM	–
COc1cc(-c2nnc3n2N=C(Nc2ccccc2C)CS3)cc(OC)c1OC	> 20 µM	–
COc1cccc(C2=Nn3c(nnc3-c3cc(OC)c(OC)c(OC)c3)SC2)c1	5.94 µM	–
COc1cc(-c2nnc(SCC(=O)c3ccc(C)cc3F)n2N)cc(OC)c1OC	0.131 µM	IC50 (MCF7): > 100 µM; IC50 (A549 [1]): > 100 µM; IC50 (HeLa): 0.04 µM
COc1cc(-c2nnc3n2N=C(c2cc4ccccc4oc2=O)CS3)cc(OC)c1OC	10.4 µM	–
COc1cc(-c2nnc3n2N=C(c2ccco2)CS3)cc(OC)c1OC	10.8 µM	–
COc1cc(C2=Nn3c(nnc3-c3ccc(Cl)cc3)SC2)cc(OC)c1OC	> 20 µM	–
COc1cc(-c2nnc3n2N=C(NCc2ccc(C)cc2)CS3)cc(OC)c1OC	> 20 µM	–
COc1cc(-c2nnc3n2N=C(c2ccccc2)CS3)cc(OC)c1OC	5.65 µM	–
COc1ccc(-c2nnc3n2N=C(c2cc(OC)c(OC)c(OC)c2)CS3)cc1OC	> 20 µM	–
COc1cc(C2=Nn3c(nnc3-c3ccc(C)cc3)SC2)cc(OC)c1OC	> 20 µM	–
COc1cc(-c2nnc3n2N=C(C)CS3)cc(OC)c1OC	15.8 µM	–
COc1cc(-c2nnc3n2N=C(c2ccccc2C)CS3)cc(OC)c1OC	16.1 µM	–

SMILES	IC50 (HT-29)	other results
COc1cc(-c2nnc3n2N=C(NCCc2ccc(C)cc2)CS3)cc(OC)c1OC	> 20 µM	–
COc1ccc(CCNC2=Nn3c(nnc3-c3cc(OC)c(OC)c(OC)c3)SC2)cc1	> 20 µM	–
COc1cc(-c2nnc3n2N=C(Nc2ccc(C)cc2)CS3)cc(OC)c1OC	> 20 µM	–
COc1cc(-c2nnc3n2N=C(c2ccc(C(F)(F)F)cc2)CS3)cc(OC)c1OC	0.29 µM	IC50 (A2780): 86.5 µM; IC50 (MCF7): 0.241 µM; IC50 (HEK293): > 100 µM; IC50 (A549 [2]): > 200 µM; IC50 (A549 [1]): 0.286 µM; IC50 [3]: 4.82 µM; IC50 (HeLa): 0.019 µM
COc1ccc(NC2=Nn3c(nnc3-c3cc(OC)c(OC)c(OC)c3)SC2)cc1	> 20 µM	–
COc1cc(-c2nnc3n2N=C(c2ccc(F)cc2)CS3)cc(OC)c1OC	8.32 µM	–
COc1cc(-c2nnc3n2N=C(Nc2ccc(Cl)cc2)CS3)cc(OC)c1OC	2.84 µM	–
COc1cc(-c2nnc3n2N=C(Nc2ccc(N4CCOCC4)cc2)CS3)cc(OC)c1OC	> 20 µM	–
COc1cc(-c2nnc3n2N=C(NCc2ccc(Cl)cc2)CS3)cc(OC)c1OC	> 20 µM	–
COc1cc(-c2nnc3n2N=C(c2ccc(Br)cc2)CS3)cc(OC)c1OC	5.18 µM	–
COc1ccc(C2=Nn3c(nnc3-c3cc(OC)c(OC)c(OC)c3)SC2)cc1	0.18 µM	IC50 (A2780): 62.2 µM; IC50 (MCF7): 0.205 µM; IC50 (HEK293): > 100 µM; IC50 (A549 [2]): 67.2 µM; IC50 (A549 [1]): 0.077 µM; IC50 [3]: 2.39 µM; IC50 (HeLa): 0.018 µM
COc1cc(-c2nnc3n2N=C(NCc2ccccc2)CS3)cc(OC)c1OC	> 20 µM	–
COc1cc(-c2nnc3n2N=C(NCc2ccc(Br)cc2)CS3)cc(OC)c1OC	> 20 µM	–
COc1cc(-c2nnc3n2N=C(NCCc2ccccc2)CS3)cc(OC)c1OC	> 20 µM	–
COc1cc(-c2nnc3n2N=C(C2CC2)CS3)cc(OC)c1OC	> 20 µM	–
COc1cc(NC2=Nn3c(nnc3-c3cc(OC)c(OC)c(OC)c3)SC2)cc(OC)c1OC	> 20 µM	–
COc1cccc(NC2=Nn3c(nnc3-c3cc(OC)c(OC)c(OC)c3)SC2)c1	12.2 µM	–
COc1cc(-c2nnc3n2N=C(c2cccc(C)c2)CS3)cc(OC)c1OC	13.6 µM	–
COc1cc(-c2nnc3n2N=C(c2ccc([N+](=O)[O-])cc2)CS3)cc(OC)c1OC	> 20 µM	–
COc1cc(-c2nnc3n2N=C(c2cccc4ccccc24)CS3)cc(OC)c1OC	6.02 µM	–
CCC1=Nn2c(nnc2-c2cc(OC)c(OC)c(OC)c2)SC1	15.4 µM	–
COc1cc(C2=Nn3c(nnc3-c3ccc(F)cc3)SC2)cc(OC)c1OC	19.7 µM	–
COc1ccc(/C=C\c2cc(OC)c(OC)c(OC)c2)cc1O [COMBRETASTATIN A4]	–	IC50 (A2780): 72.8 µM; IC50 (HEK293): 45.7 µM; IC50 (A549 [2]): 130 µM; IC50 (A549 [1]): 0.021 µM
COc1cc(-c2nnc3n2N=C(Nc2ccc(Br)cc2)CS3)cc(OC)c1OC	18.6 µM	–
COc1cc(-c2nnc3n2N=C(Nc2ccccc2F)CS3)cc(OC)c1OC	2.9 µM	–
COc1cc(-c2nnc3n2N=C(c2cccc(Br)c2)CS3)cc(OC)c1OC	15.4 µM	–
